# In the supplement of paper PMC10733146:
# What was measured:
# Assay in all cases: viability relative to DMSO control (fraction); higher = less drug effect (more viable cells)
# Settings in all cases: 48 h
# [1] = compound: C[C@H](NC(=O)CCC(F)(F)F)C(=O)N[C@@H]1C(=O)N(CCO)c2ncccc2-c2ccccc21
# Outline: (§1)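 Viability was quantified by CellTiter-Glo luminescence and related to the median of 16 inner DMSO wells. Before that, primary mononuclear tumour cells, fresh or cryopreserved and Ficoll-isolated from blood or bone marrow or prepared from processed lymph node, were plated at 4 × 10^4 cells per well in 384-well plates containing pre-plated compounds at five concentrations, one well each. Plates were incubated in RPMI-1640 with penicillin/streptomycin, L-glutamine and human serum at 37 °C and 5% CO2 for 48 h.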
# [2] = compound: CCc1ccc(/C=C2/SC(=S)NC2=O)cc1
# Outline: as §1
# [3] = compound: O=C(NO)c1cccc(C(=O)NCCc2ccccc2)c1
# Outline: as §1
# Pomalidomide = compound: Nc1cccc2c1C(=O)N(C1CCC(=O)NC1=O)C2=O [Pomalidomide]
# Outline: as §1
# Vindesine = compound: CC[C@]1(O)C[C@@H]2CN(CCc3c([nH]c4ccccc34)[C@@](C(=O)OC)(c3cc4c(cc3OC)N(C)[C@H]3[C@@](O)(C(N)=O)[C@H](O)[C@]5(CC)C=CCN6CC[C@]43[C@@H]65)C2)C1 [Vindesine]
# Outline: as §1
# Midostaurin hydrate = compound: CO[C@@H]1[C@H](N(C)C(=O)c2ccccc2)C[C@H]2O[C@]1(C)n1c3ccccc3c3c4c(c5c6ccccc6n2c5c31)C(=O)NC4 [Midostaurin hydrate]
# Outline: as §1
# I-BET-762 = compound: CCNC(=O)C[C@@H]1N=C(c2ccc(Cl)cc2)c2cc(OC)ccc2-n2c(C)nnc21 [I-BET-762]
# Outline: as §1
# Selinexor = compound: O=C(/C=C\n1cnc(-c2cc(C(F)(F)F)cc(C(F)(F)F)c2)n1)NNc1cnccn1 [Selinexor]
# Outline: as §1
# Roscovitine = compound: CC[C@H](CO)Nc1nc(NCc2ccccc2)c2ncn(C(C)C)c2n1 [Roscovitine]
# Outline: as §1
# Bendamustine = compound: Cn1c(CCCC(=O)O)nc2cc(N(CCCl)CCCl)ccc21 [Bendamustine]
# Outline: as §1
# CPI-169 = compound: CCS(=O)(=O)N1CCC([C@@H](C)n2c(C)c(C(=O)NCc3c(OC)cc(C)[nH]c3=O)c3ccccc32)CC1 [CPI-169]
# Outline: as §1
# Navitoclax = compound: CC1(C)CCC(c2ccc(Cl)cc2)=C(CN2CCN(c3ccc(C(=O)NS(=O)(=O)c4ccc(N[C@H](CCN5CCOCC5)CSc5ccccc5)c(S(=O)(=O)C(F)(F)F)c4)cc3)CC2)C1 [Navitoclax]
# Outline: as §1
# [4] = compound: C[C@H]1C[C@@H](n2c(Nc3ccc(OC(F)(F)F)cc3)nc3cc(CCC(=O)O)ccc32)CC(C)(C)C1
# Outline: as §1
# Tofacitinib = compound: C[C@@H]1CCN(C(=O)CC#N)C[C@@H]1N(C)c1ncnc2[nH]ccc12 [Tofacitinib]
# Outline: as §1
# Idasanutlin (RS7388) = compound: COc1cc(C(=O)O)ccc1NC(=O)[C@@H]1N[C@@H](CC(C)(C)C)[C@](C#N)(c2ccc(Cl)cc2F)[C@H]1c1cccc(Cl)c1F [Idasanutlin (RS7388)]
# Outline: as §1
test system,measurement,setting,value
primary ALL patient cells (S088),viability,[1]; 0.016 µM,1.08
same,viability,[1]; 0.08 µM,1.11
same,viability,[1]; 0.4 µM,1.08
same,viability,[1]; 2 µM,1.09
same,viability,[1]; 10 µM,1.05
same,viability,[2]; 0.024 µM,0.202
same,viability,[2]; 0.12 µM,0.324
same,viability,[2]; 0.6 µM,0.591
same,viability,[2]; 3 µM,0.593
same,viability,[2]; 15 µM,0.571
same,viability,[3]; 0.024 µM,0.838
same,viability,[3]; 0.12 µM,0.868
same,viability,[3]; 0.6 µM,0.907
same,viability,[3]; 3 µM,0.931
same,viability,[3]; 15 µM,0.733
same,viability,Pomalidomide; 0.0032 µM,0.934
same,viability,Pomalidomide; 0.016 µM,1.08
same,viability,Pomalidomide; 0.08 µM,1.15
same,viability,Pomalidomide; 0.4 µM,1.05
same,viability,Pomalidomide; 2 µM,1.1
same,viability,Vindesine; 0.016 µM,0.633
same,viability,Vindesine; 0.08 µM,0.464
same,viability,Vindesine; 0.4 µM,0.37
same,viability,Vindesine; 2 µM,0.317
same,viability,Vindesine; 10 µM,0.255
same,viability,Midostaurin hydrate; 0.024 µM,0.899
same,viability,Midostaurin hydrate; 0.12 µM,0.858
same,viability,Midostaurin hydrate; 0.6 µM,0.717
same,viability,Midostaurin hydrate; 3 µM,0.489
same,viability,Midostaurin hydrate; 15 µM,0.265
same,viability,I-BET-762; 0.008 µM,0.856
same,viability,I-BET-762; 0.04 µM,0.906
same,viability,I-BET-762; 0.2 µM,0.857
same,viability,I-BET-762; 1 µM,0.522
same,viability,I-BET-762; 5 µM,0.444
same,viability,Selinexor; 0.008 µM,0.494
same,viability,Selinexor; 0.04 µM,0.339
same,viability,Selinexor; 0.2 µM,0.115
same,viability,Selinexor; 1 µM,0.0421
same,viability,Selinexor; 5 µM,0.0377
same,viability,Roscovitine; 0.032 µM,0.619
same,viability,Roscovitine; 0.16 µM,0.669
same,viability,Roscovitine; 0.8 µM,0.615
same,viability,Roscovitine; 4 µM,0.607
same,viability,Roscovitine; 20 µM,0.319
same,viability,Bendamustine; 0.032 µM,1
same,viability,Bendamustine; 0.16 µM,1.07
same,viability,Bendamustine; 0.8 µM,1
same,viability,Bendamustine; 4 µM,0.929
same,viability,Bendamustine; 20 µM,0.679
same,viability,CPI-169; 0.024 µM,0.666
same,viability,CPI-169; 0.12 µM,0.704
same,viability,CPI-169; 0.6 µM,0.707
same,viability,CPI-169; 3 µM,0.632
same,viability,CPI-169; 15 µM,0.548
same,viability,Navitoclax; 0.0032 µM,1.01
same,viability,Navitoclax; 0.016 µM,0.751
same,viability,Navitoclax; 0.08 µM,0.386
same,viability,Navitoclax; 0.4 µM,0.189
same,viability,Navitoclax; 2 µM,0.106
same,viability,[4]; 0.024 µM,0.471
same,viability,[4]; 0.12 µM,0.597
same,viability,[4]; 0.6 µM,0.43
same,viability,[4]; 3 µM,0.548
same,viability,[4]; 15 µM,0.573
same,viability,Tofacitinib; 0.024 µM,0.703
same,viability,Tofacitinib; 0.12 µM,0.707
same,viability,Tofacitinib; 0.6 µM,0.702
same,viability,Tofacitinib; 3 µM,0.78
same,viability,Tofacitinib; 15 µM,0.662
same,viability,Idasanutlin (RS7388); 0.032 µM,0.557
same,viability,Idasanutlin (RS7388); 0.16 µM,0.423
same,viability,Idasanutlin (RS7388); 0.8 µM,0.286
same,viability,Idasanutlin (RS7388); 4 µM,0.155
same,viability,Idasanutlin (RS7388); 20 µM,0.132
primary AML patient cells (S006),viability,[1]; 0.016 µM,1.13
same,viability,[1]; 0.08 µM,1.16
same,viability,[1]; 0.4 µM,1.11
same,viability,[1]; 2 µM,1.19
same,viability,[1]; 10 µM,1.08
same,viability,[2]; 0.024 µM,0.827
same,viability,[2]; 0.12 µM,0.884
same,viability,[2]; 0.6 µM,0.929
same,viability,[2]; 3 µM,0.883
same,viability,[2]; 15 µM,0.833
same,viability,[3]; 0.024 µM,1.03
same,viability,[3]; 0.12 µM,0.999
same,viability,[3]; 0.6 µM,1.04
same,viability,[3]; 3 µM,0.933
same,viability,[3]; 15 µM,0.837
same,viability,Pomalidomide; 0.0032 µM,0.812
same,viability,Pomalidomide; 0.016 µM,0.817
same,viability,Pomalidomide; 0.08 µM,0.786
same,viability,Pomalidomide; 0.4 µM,0.622
same,viability,Pomalidomide; 2 µM,0.656
same,viability,Vindesine; 0.016 µM,0.778
same,viability,Vindesine; 0.08 µM,0.395
same,viability,Vindesine; 0.4 µM,0.244
same,viability,Vindesine; 2 µM,0.207
same,viability,Vindesine; 10 µM,0.194
same,viability,Midostaurin hydrate; 0.024 µM,0.669
same,viability,Midostaurin hydrate; 0.12 µM,0.585
same,viability,Midostaurin hydrate; 0.6 µM,0.529
same,viability,Midostaurin hydrate; 3 µM,0.638
same,viability,Midostaurin hydrate; 15 µM,0.709
same,viability,Selinexor; 0.008 µM,0.885
same,viability,Selinexor; 0.04 µM,0.835
same,viability,Selinexor; 0.2 µM,0.811
same,viability,Selinexor; 1 µM,0.686
same,viability,Selinexor; 5 µM,0.532
same,viability,Roscovitine; 0.032 µM,1.08
same,viability,Roscovitine; 0.16 µM,1.07
same,viability,Roscovitine; 0.8 µM,1.03
same,viability,Roscovitine; 4 µM,1.04
same,viability,Roscovitine; 20 µM,0.576
same,viability,Bendamustine; 0.032 µM,0.999
same,viability,Bendamustine; 0.16 µM,1.04
same,viability,Bendamustine; 0.8 µM,1.04
same,viability,Bendamustine; 4 µM,0.987
same,viability,Bendamustine; 20 µM,0.616
same,viability,CPI-169; 0.024 µM,0.992
same,viability,CPI-169; 0.12 µM,0.982
same,viability,CPI-169; 0.6 µM,1.03
same,viability,CPI-169; 3 µM,1.01
same,viability,CPI-169; 15 µM,1.06
same,viability,Navitoclax; 0.0032 µM,0.989
same,viability,Navitoclax; 0.016 µM,0.771
same,viability,Navitoclax; 0.08 µM,0.306
same,viability,Navitoclax; 0.4 µM,0.0666
same,viability,Navitoclax; 2 µM,0.0316
same,viability,[4]; 0.024 µM,1.02
same,viability,[4]; 0.12 µM,1.14
same,viability,[4]; 0.6 µM,1.08
same,viability,[4]; 3 µM,1.04
same,viability,[4]; 15 µM,0.957
same,viability,Tofacitinib; 0.024 µM,0.969
same,viability,Tofacitinib; 0.12 µM,0.904
same,viability,Tofacitinib; 0.6 µM,0.937
same,viability,Tofacitinib; 3 µM,0.842
same,viability,Tofacitinib; 15 µM,0.578
same,viability,Idasanutlin (RS7388); 0.032 µM,0.488
same,viability,Idasanutlin (RS7388); 0.16 µM,0.25
same,viability,Idasanutlin (RS7388); 0.8 µM,0.0758
same,viability,Idasanutlin (RS7388); 4 µM,0.0429
same,viability,Idasanutlin (RS7388); 20 µM,0.0408
